One series relates to HepG2 cell lysates. In words: MS-based ABPP to identify liganded cysteines in HepG2 cell lysates. The format is biochemical, human. To be noted: 10 μM, 1 h. The protocol: MS-Based ABPP Experiments to Identify Liganded Cysteines in HepG2 Cell Lysates by NAIA-5 or IAA.
HepG2 cells were lysed in PBS by sonication. After BCA assay and protein normalization, HepG2 cell lysates in PBS (2 mg/mL, 2 mL) were incubated with NAIA-5 and IAA (10 μM), respectively, at room temperature for 1 h with vortexing. Then, the samples were incubated with a master mix solution for CuAAC reaction, containing CuSO4, TBTA, DTB-PEG-azide and TECP (final concentrations are 1 mM, 100 μM, 100 μM and 1 mM respectively). After incubation at room temperature for 1 h with vortexing, pre-chilled acetone (12 mL) was added to the samples and proteins were allowed to precipitate out by storing at −20° C. overnight. The samples were centrifuged at 5,000 g at 4° C. for 10 min, and the supernatant was discarded. The protein pellets labeled by NAIA-5 and IAA were then combined and washed with pre-chilled methanol twice. The protein pellets were then re-dispersed in 1.2% SDS in PBS (w/v), followed by heating at 80° C. for 5 min. Any insoluble solids were discarded by centrifugation at 6,500 g for 5 min, and the supernatant were transferred to PBS solution containing Pierce™ Streptavidin Agarose beads (20349; Thermo Scientific) with final concentration of SDS equal to 0.2% (w/v). The samples and beads were incubated at 4° C. with rotation overnight. […]

A short description of series [1]: Stability in aqueous buffer solution over time (LC-MS). Format: physicochemical. The protocol: Stability of NAIA-5 in Aqueous Buffer Solution Over Time
NAIA-5 (10 μM) was dissolved in PBS/MeOH solution mixture (4:1, v/v; 500 μL) and stay at room temperature. At predetermined time intervals, an aliquot of the reaction mixture (10 μL) was sent for LC-MS analysis on Waters Autopurification System using a SunFire C18 HPLC column (50×4.6 mm with 5 μm diameter particles, Waters). Separation was achieved by gradient elution from 5% to 100% MeCN in water (constant 0.1 vol % formic acid) over 4 min, isocratic elution with 100% MeCN (with 0.1 vol % formic acid) from 4 to 8 min and returning to 5% MeCN in water (with 0.1 vol % formic acid) and equilibrated for 2 min. Selected ion chromatograms, with m/z=325 corresponding to [NAIA-5+H]^+, were extracted and analyzed by integrating the area under curve.
As fast-reacting probes are often susceptible to hydrolysis, we sought to investigate the aqueous stability of NAIA-C5 amide. […] Taking the excellent reaction kinetics and a mere 14% degradation in 30 min into account, NAIA-C5 amide was considered to be a useful tool in cysteine profiling (FIG. 17C and FIG. 17F).

The next series relates to 231MFP cells. The experiment in a line: WST-8 cell viability assay. Format: cell-based. The protocol: WST-8 Cell Viability Assay of Cells Treated with NAIA-4 or IAA
231MFP cells were plated on 96-well plates (Corning, 3904) at 30,000 cells per well and allowed to grow in complete medium overnight. The cells were then incubated with DMSO solvent control, NAIA-4 or IAA at indicated concentrations for 2 h. The solution was replaced with new culture medium containing 10 μL of WST-8 solution (Abcam; ab228554) and incubated for 2 h in dark at 37° C. Cell viability were then assayed by the absorption at 460 nm on SpectraMax i3 (Molecular Devices).

Molecules are shown by their SMILES.

As to `C#CCCCCNC(=O)COc1ccc2c(ccn2C(=O)C=C)c1` [NAIA-5], the “off-target labeling onto other amino acids” value in the series with HepG2 cell lysates was “less undesired off-target labeling onto other amino acids as compared to IAA”. For the same compound, the “change of compound level in aqueous buffer solution over time (in words)” value in series [1] (10 μM, PBS/MeOH 4:1, room temperature) is on record as “No significant changes in NAIA-5 level in the aqueous buffer solution over time”. For the same compound, in series [1] (pH 7.4, absence of Cys), the “time stable in PBS solution” value is at least 3 h.

Turning to `C#CCCCCNC(=O)CI` [IAA, N-Hex-5-ynyl-2-iodoacetamide, reference compound], the “cytotoxicity (in words)” value in the series with 231MFP cells is on record as “high cellular cytotoxicity”.

Values taken from US20240103005A1, “N-ACRYLOYLINDOLES AND METHODS OF USE” (The University of Hong Kong, priority 2022, published 2024).
